The test deals with T1, sGC enzyme (Homo sapiens, UniProt Q02108+Q02153).
T1 construct: sGC enzyme activity values in HEK cells, determined by the GloSensor assay; host or cells: HEK293 cells stably expressing GloSensor 40F cGMP biosensor
T1 sequence (Q02153 1-619): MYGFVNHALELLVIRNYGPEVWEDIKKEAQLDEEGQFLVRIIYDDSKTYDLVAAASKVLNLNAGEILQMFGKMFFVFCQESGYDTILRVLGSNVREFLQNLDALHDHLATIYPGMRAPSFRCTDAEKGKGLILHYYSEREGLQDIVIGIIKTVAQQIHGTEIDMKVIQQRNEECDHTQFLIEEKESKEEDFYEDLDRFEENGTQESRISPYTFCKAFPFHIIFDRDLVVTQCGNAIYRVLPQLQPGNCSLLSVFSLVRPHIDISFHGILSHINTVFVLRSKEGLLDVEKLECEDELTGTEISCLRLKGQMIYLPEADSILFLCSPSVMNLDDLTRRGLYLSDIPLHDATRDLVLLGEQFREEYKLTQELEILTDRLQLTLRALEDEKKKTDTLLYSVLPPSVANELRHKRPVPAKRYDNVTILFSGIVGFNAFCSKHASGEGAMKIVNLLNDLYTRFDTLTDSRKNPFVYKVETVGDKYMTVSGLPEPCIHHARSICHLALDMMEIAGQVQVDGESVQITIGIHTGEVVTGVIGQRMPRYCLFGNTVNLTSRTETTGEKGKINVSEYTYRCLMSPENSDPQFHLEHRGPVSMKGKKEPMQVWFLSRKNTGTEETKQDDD
T1 sequence (Q02108 1-690): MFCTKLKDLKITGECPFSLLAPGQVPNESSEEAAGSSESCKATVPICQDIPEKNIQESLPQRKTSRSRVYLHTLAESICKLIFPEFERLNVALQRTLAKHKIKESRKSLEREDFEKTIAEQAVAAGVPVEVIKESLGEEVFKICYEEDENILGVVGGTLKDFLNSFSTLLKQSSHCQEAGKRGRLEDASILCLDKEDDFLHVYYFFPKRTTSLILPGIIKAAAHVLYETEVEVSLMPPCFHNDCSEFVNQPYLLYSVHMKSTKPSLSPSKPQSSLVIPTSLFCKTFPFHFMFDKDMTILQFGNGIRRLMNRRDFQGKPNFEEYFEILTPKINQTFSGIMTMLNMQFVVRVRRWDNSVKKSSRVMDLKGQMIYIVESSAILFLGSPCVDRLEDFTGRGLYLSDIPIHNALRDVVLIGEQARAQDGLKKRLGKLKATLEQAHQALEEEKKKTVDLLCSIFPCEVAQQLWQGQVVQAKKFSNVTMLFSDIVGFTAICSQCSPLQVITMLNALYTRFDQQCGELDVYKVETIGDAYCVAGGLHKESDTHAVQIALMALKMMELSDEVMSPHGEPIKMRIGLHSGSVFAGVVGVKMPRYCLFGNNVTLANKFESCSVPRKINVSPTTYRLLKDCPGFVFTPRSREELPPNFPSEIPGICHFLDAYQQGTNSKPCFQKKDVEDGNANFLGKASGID
The test is described as follows: cGMP GloSensor cell-based assay, 384-well format (Example 2a). Conditions: HEK293 GloSensor 40F cGMP cells; 10 μM DETA-NONOate; 50% of high control (30 μM Compound Y); read-out: Abs EC50. Put shortly: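 HEK293 cells expressing GloSensor 40F cGMP biosensor, pre-equilibrated with GloSensor substrate 90 min at 25 °C, then given compound (final 0.029–30000 nM) plus 10 μM DETA-NONOate; luminescence read after 55 min at room temperature. Normalized to 1% DMSO (low) and 30 μM Compound Y (high); Abs EC50 from 4-parameter fit, n=2, geometric mean.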
What is called EC50 is the midpoint of the concentration-response curve. Take `Fc1ccccc1Cc1nc(-c2nc(C(F)(F)F)n[nH]2)cn2ccnc12` [Compound I-1, 8-(2-fluorobenzyl)-6-(3-(trifluoromethyl)-1H-1,2,4-triazol-5-yl)imidazo[1,2-a]pyrazine]: the EC50 is ≤ 0.1 µM.

Turning to `Fc1cccc(Cc2nc(-c3nc(C(F)(F)F)n[nH]3)cn3ccnc23)c1` [Compound I-2, 8-(3-Fluorobenzyl)-6-(3-(trifluoromethyl)-1H-1,2,4-triazol-5-yl)imidazo[1,2-a]pyrazine], the EC50 was ≤ 0.1 µM.

Take `Fc1cccc(Cc2nc(-c3nc(C(F)F)n[nH]3)cn3ccnc23)c1` [Compound I-3, 6-(3-(Difluoromethyl)-1H-1,2,4-triazol-5-yl)-8-(3-fluorobenzyl)imidazo[1,2-a]pyrazine]: the EC50 was 0.1 to 1 µM.

Consider `Fc1cccc(Cc2nc(-c3nc(C(F)(F)F)n[nH]3)cn3ccnc23)c1F` [Compound I-10, 8-(2,3-Difluorobenzyl)-6-(3-(trifluoromethyl)-1H-1,2,4-triazol-5-yl)imidazo[1,2-a]pyrazine], for which the concentration for a half-maximal effect (EC50) is ≤ 0.1 µM.

On to `Fc1cccc(Cc2nc(-c3nc(C(F)F)n[nH]3)cn3ccnc23)c1F` [Compound I-11, 8-(2,3-Difluorobenzyl)-6-(3-(difluoromethyl)-1H-1,2,4-triazol-5-yl)imidazo[1,2-a]pyrazine], for which the EC50 fell in the range of 0.1 to 1 µM.

For the compound `Fc1ccccc1Cc1nc(-c2nc(C(F)F)n[nH]2)cn2ccnc12` [Compound I-14, 8-(2-Fluorobenzyl)-6-(3-(difluoromethyl)-1H-1,2,4-triazol-5-yl)imidazo[1,2-a]pyrazine], the 50% effective concentration (EC50) is ≤ 0.1 µM.

Consider `Fc1ccccc1Cc1nc(-c2nc(C(F)(F)F)n[nH]2)cn2ncnc12` [Compound I-16, 8-(2-Fluorobenzyl)-6-(3-(trifluoromethyl)-1H-1,2,4-triazol-5-yl)-[1,2,4]triazolo[1,5-a]pyrazine], for which the EC50 was ≤ 0.1 µM.
